Laboratory results as given in ChEMBL document CHEMBL1817628, “Structure-based design of new DHFR-based antibacterial agents: 7-aryl-2,4-diaminoquinazolines” (Bioorg Med Chem Lett, 2011).
pKi: −log10 of the molar value. ≈ marks a conversion by molar mass, not a printed value.

Key:
Staphylococcus aureus [1] = experiment: Antibacterial activity against Staphylococcus aureus Smith ATCC 13709 by CLSI microdilution method; type: functional
Staphylococcus aureus [2] = experiment: Antibacterial activity against Staphylococcus aureus Smith ATCC 13709 in presence of 20% mouse serum by CLSI microdilution method; type: functional
Enterococcus faecalis = experiment: Antibacterial activity against Enterococcus faecalis ATCC 29212 by CLSI microdilution method; type: functional
Haemophilus influenzae = experiment: Antibacterial activity against ampicillin-resistant Haemophilus influenzae ATCC 49247 by CLSI microdilution method; type: functional
Escherichia coli = experiment: Antibacterial activity against Escherichia coli ATCC 35218 by CLSI microdilution method; type: functional
[3] = Inhibition of Haemophilus influenzae DHFR assessed as oxidation of NADPH using dihydrofolate as substrate pre-incubated for 10 mins before substrate addition by spectrophotometry
Dihydrofolate reductase [4] = target: Dihydrofolate reductase (Staphylococcus aureus, UniProt P0A017); experiment: Inhibition of Staphylococcus aureus DHFR assessed as oxidation of NADPH using dihydrofolate as substrate pre-incubated for 10 mins before substrate addition by spectrophotometry
Dihydrofolate reductase (Staphylococcus aureus, UniProt P0A017), sequence (P0A017 whole entry): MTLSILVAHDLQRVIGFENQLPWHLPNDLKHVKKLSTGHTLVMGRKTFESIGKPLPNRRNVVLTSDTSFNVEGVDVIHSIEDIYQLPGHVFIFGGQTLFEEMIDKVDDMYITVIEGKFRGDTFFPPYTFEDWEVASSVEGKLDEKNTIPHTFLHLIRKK

Dihydrofolate reductase [5] = target: T1, Dihydrofolate reductase (Homo sapiens, UniProt P00374); experiment: Inhibition of human DHFR assessed as oxidation of NADPH using dihydrofolate as substrate pre-incubated for 10 mins before substrate addition by spectrophotometry
T1 sequence (P00374 whole entry): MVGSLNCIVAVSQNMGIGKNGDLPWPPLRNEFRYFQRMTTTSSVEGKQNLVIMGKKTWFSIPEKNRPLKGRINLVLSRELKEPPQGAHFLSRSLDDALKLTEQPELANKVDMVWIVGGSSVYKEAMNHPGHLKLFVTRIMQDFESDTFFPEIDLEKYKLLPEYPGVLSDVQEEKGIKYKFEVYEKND

Staphylococcus aureus [6] = experiment: Antibacterial activity against TMP-resistant Staphylococcus aureus harboring DHFR F99Y mutant by CLSI microdilution method; type: functional

Compound: Nc1ccc(-c2ccc3c(N)nc(N)nc3c2)cc1
- MIC (Staphylococcus aureus [1]): 4 mg/L (≈ 15.9 µM)
- MIC (Staphylococcus aureus [2]): 2 mg/L
- MIC (Enterococcus faecalis): 8 mg/L (≈ 31.8 µM)
- MIC (Haemophilus influenzae): 4 mg/L (≈ 15.9 µM)
- MIC (Escherichia coli): 32 mg/L (≈ 127 µM)
- pKi [3]: 9.80

Compound: Nc1nc(N)c2ccc(-c3ccccc3)cc2n1
- MIC (Staphylococcus aureus [1]): 8 mg/L (≈ 33.9 µM)
- MIC (Staphylococcus aureus [2]): 64 mg/L
- MIC (Enterococcus faecalis): 8 mg/L (≈ 33.9 µM)
- MIC (Haemophilus influenzae): 16 mg/L (≈ 67.7 µM)
- MIC (Escherichia coli): 16 mg/L (≈ 67.7 µM)
- pKi (Dihydrofolate reductase [4]): 8.04
- pKi [3]: 9.28
- pKi (Dihydrofolate reductase [5]): 6.13

Compound: CC(=O)c1cccc(-c2cc3nc(N)nc(N)c3cc2C)c1
- MIC (Staphylococcus aureus [1]): 0.5 mg/L (≈ 1.71 µM)
- MIC (Staphylococcus aureus [2]): 1 mg/L
- MIC (Enterococcus faecalis): 0.5 mg/L (≈ 1.71 µM)
- MIC (Haemophilus influenzae): 1 mg/L (≈ 3.42 µM)
- MIC (Escherichia coli): 4 mg/L (≈ 13.7 µM)
- pKi [3]: 11.22

Compound: CS(=O)(=O)c1ccc(-c2ccc3c(N)nc(N)nc3c2)cc1
- MIC (Staphylococcus aureus [1]): 8 mg/L (≈ 25.4 µM)
- MIC (Staphylococcus aureus [2]): 8 mg/L
- MIC (Enterococcus faecalis): 16 mg/L (≈ 50.9 µM)
- MIC (Haemophilus influenzae): 16 mg/L (≈ 50.9 µM)
- MIC (Escherichia coli): > 64 mg/L
- pKi (Dihydrofolate reductase [4]): 8.30
- pKi [3]: 9.66
- pKi (Dihydrofolate reductase [5]): 6.60

Compound: CCOc1ccccc1-c1ccc2c(N)nc(N)nc2c1
- MIC (Staphylococcus aureus [1]): 4 mg/L (≈ 14.3 µM)
- MIC (Staphylococcus aureus [2]): 8 mg/L
- MIC (Enterococcus faecalis): 4 mg/L (≈ 14.3 µM)
- MIC (Haemophilus influenzae): 16 mg/L (≈ 57.1 µM)
- MIC (Escherichia coli): 32 mg/L (≈ 114 µM)
- pKi (Dihydrofolate reductase [4]): 8.51
- pKi [3]: 9.57
- pKi (Dihydrofolate reductase [5]): 7.07

Compound: CCOc1ccc(Cl)cc1-c1cc2nc(N)nc(N)c2cc1C
- MIC (Staphylococcus aureus [1]): 1 mg/L (≈ 3.04 µM)
- MIC (Staphylococcus aureus [2]): 2 mg/L
- MIC (Enterococcus faecalis): 0.5 mg/L (≈ 1.52 µM)
- MIC (Haemophilus influenzae): 8 mg/L (≈ 24.3 µM)
- MIC (Escherichia coli): 8 mg/L (≈ 24.3 µM)
- pKi (Dihydrofolate reductase [4]): 9.42
- pKi [3]: 10.64
- pKi (Dihydrofolate reductase [5]): 7.95

Compound: COc1cc(Cc2cnc(N)nc2N)cc(OC)c1OC [TRIMETHOPRIM]
- MIC (Staphylococcus aureus [1]): 1 mg/L (≈ 3.44 µM)
- MIC (Staphylococcus aureus [2]): 1 mg/L
- MIC (Enterococcus faecalis): 0.5 mg/L (≈ 1.72 µM)
- MIC (Haemophilus influenzae): 0.5 mg/L (≈ 1.72 µM)
- MIC (Escherichia coli): 1 mg/L (≈ 3.44 µM)
- pKi [3]: 9.72
- MIC (Staphylococcus aureus [6]): 32 mg/L (≈ 110 µM)

Compound: COc1ccccc1-c1ccc2c(N)nc(N)nc2c1
- MIC (Staphylococcus aureus [1]): 2 mg/L (≈ 7.51 µM)
- MIC (Staphylococcus aureus [2]): 4 mg/L
- MIC (Enterococcus faecalis): 4 mg/L (≈ 15 µM)
- MIC (Haemophilus influenzae): 16 mg/L (≈ 60.1 µM)
- MIC (Escherichia coli): 32 mg/L (≈ 120 µM)
- pKi [3]: 9.68

Compound: Cc1ccccc1-c1cc2nc(N)nc(N)c2cc1C
- MIC (Staphylococcus aureus [1]): 0.5 mg/L (≈ 1.89 µM)
- MIC (Staphylococcus aureus [2]): 2 mg/L
- MIC (Enterococcus faecalis): 0.5 mg/L (≈ 1.89 µM)
- MIC (Haemophilus influenzae): 4 mg/L (≈ 15.1 µM)
- MIC (Escherichia coli): 8 mg/L (≈ 30.3 µM)
- pKi (Dihydrofolate reductase [4]): 9.11
- pKi [3]: 10.43
- pKi (Dihydrofolate reductase [5]): 7.02

Compound: CCOc1ccc(Br)cc1-c1cc2nc(N)nc(N)c2cc1C
- MIC (Staphylococcus aureus [1]): 1 mg/L (≈ 2.68 µM)
- MIC (Staphylococcus aureus [2]): 8 mg/L
- MIC (Enterococcus faecalis): 0.5 mg/L (≈ 1.34 µM)
- MIC (Haemophilus influenzae): 32 mg/L (≈ 85.7 µM)
- MIC (Escherichia coli): 32 mg/L (≈ 85.7 µM)
- pKi (Dihydrofolate reductase [4]): 9.12
- pKi [3]: 10.36
- pKi (Dihydrofolate reductase [5]): 7.95

Compound: CCOc1ccc(-c2cccnc2)cc1-c1ccc2c(N)nc(N)nc2c1
- MIC (Staphylococcus aureus [1]): 0.5 mg/L (≈ 1.4 µM)
- MIC (Staphylococcus aureus [2]): 8 mg/L
- MIC (Enterococcus faecalis): 0.5 mg/L (≈ 1.4 µM)
- MIC (Haemophilus influenzae): 16 mg/L (≈ 44.8 µM)
- MIC (Escherichia coli): > 16 mg/L
- pKi (Dihydrofolate reductase [4]): 9.52
- pKi [3]: 10.96
- pKi (Dihydrofolate reductase [5]): 8.00

Compound: CCOc1ccc(C)cc1-c1cc2nc(N)nc(N)c2cc1C
- MIC (Staphylococcus aureus [1]): 1 mg/L (≈ 3.24 µM)
- MIC (Staphylococcus aureus [2]): 4 mg/L
- MIC (Enterococcus faecalis): 0.5 mg/L (≈ 1.62 µM)
- MIC (Haemophilus influenzae): 16 mg/L (≈ 51.9 µM)
- MIC (Escherichia coli): 16 mg/L (≈ 51.9 µM)
- pKi (Dihydrofolate reductase [4]): 9.07
- pKi [3]: 10.47
- pKi (Dihydrofolate reductase [5]): 7.65

Compound: Cc1cc2c(N)nc(N)nc2cc1-c1ccc(S(C)(=O)=O)cc1
- MIC (Staphylococcus aureus [1]): 2 mg/L (≈ 6.09 µM)
- MIC (Staphylococcus aureus [2]): 1 mg/L
- MIC (Enterococcus faecalis): 1 mg/L (≈ 3.05 µM)
- MIC (Haemophilus influenzae): 8 mg/L (≈ 24.4 µM)
- MIC (Escherichia coli): 32 mg/L (≈ 97.4 µM)
- pKi (Dihydrofolate reductase [4]): 8.92
- pKi [3]: 11.64
- pKi (Dihydrofolate reductase [5]): 7.36
